Read-outs that look alike come from different tables or passages of the source.
Legend:
[1] = Single-blind, three-phase crossover study of single oral doses: blood analyses of metabolic, hormonal and electrolyte parameters in 8 normal male subjects; format: in vivo, human; details: for Free fatty acids, mean / Angiotensin I, mean / Renin, mean / C-peptide, mean / Potassium, mean / Uric acid, mean / Aldosterone, mean / Insulin, mean / Urea, mean / VLDL Cholesterol, mean / Norepinephrine, mean / HDL Cholesterol, mean / Glucose, mean / Triglycerides, mean / LDL Cholesterol, mean / Total cholesterol, mean / Fibrinogen, mean: 8 normal subjects; for Free fatty acids, mean: 0 h: PZG 0.47, PZA 0.51; for Angiotensin I, mean: 0 h: PZG 0.84, PZA 0.66; for Renin, mean: 0 h: PZG 1.0, PZA 1.5; for C-peptide, mean: 0 h: PZG 1.1, PZA 1.2; for Potassium, mean: 0 h: PZG 4.2, PZA 4.0; for Uric acid, mean: 0 h: PZG 6.0, PZA 5.6; for Aldosterone, mean: 0 h: PZG 8.6, PZA 13.6; for Insulin, mean: 0 h: PZG 8.8, PZA 5.4; for Urea, mean: 0 h: PZG 17, PZA 17; for VLDL Cholesterol, mean: 0 h: PZG 20, PZA 17; for Norepinephrine, mean: 0 h: PZG 37, PZA 75; for HDL Cholesterol, mean: 0 h: PZG 41, PZA 46; for Glucose, mean: 0 h: PZG 87, PZA 84; for Triglycerides, mean: 0 h: PZG 101, PZA 86; for LDL Cholesterol, mean: 0 h: PZG 107, PZA 104; for Total cholesterol, mean: 0 h: PZG 168, PZA 167; for Fibrinogen, mean: 0 h: PZG 266, PZA 293
Experimental: A three-phase study, where single oral doses of placebo, followed in one week by 900 mg of pyrazinoylguanidine (PZG), followed in three weeks by 300 mg of pyrazinoic acid (PZA), involving normal male subjects, was carried out to compare and contrast metabolic effects of single doses of PZG and PZA. A purpose of the study was to determine whether the metalbolic effects observed after 3 and also 21 days of PZG administration in patients with renal disease or with diabetes also occurred after a single oral dose. […]
(§1) Eight male nonsmoking subjects aged 24-32 participated. They were normal by history, physical exam and routine laboratory analysis of blood and urine.
(§2) This was a single-blind, three-phase crossover study beginning after a 10-hour fast at 8 a.m., designated time 0 (control), when the first venipuncture occurred. In phase I, three capsules of lactose were given orally, followed by venipunctures 2 and 4 h later. In phase II, 1 week later, after a control blood specimen drawn at 8 a.m., PZG (900 mg) was given orally and blood specimens taken 2 and 4 h thereafter. In phase III, 3 weeks later, after a control blood specimen drawn at 8 a.m., PZA (300 mg) was given orally and blood specimens taken 2 and 4 h later.
(§3) Each phase consisted of taking three capsules, each containing 300 mg. In phase I, all three capsules were of lactose; in phase II, all three were PZG; and in phase III, two capsules were lactose and one PZA. All capsules appeared indistinguishable and were given to each subject who swallowed them with water in the presence of an investigator.
(§4) Once obtained, blood specimens were immediately spun. Refrigerated serum or plasma was analyzed within 24 h for glucose, insulin, electrolytes, blood urea nitrogen, creatinine, liver function tests, triglycerides, total cholesterol, high-density lipoprotein (HDL) cholesterol, low-density lipoprotein (LDL) cholesterol, very-low-density lipoprotein (VLDL) cholesterol, free fatty acids, and fibrinogen.
Repeated measures of analysis of variance were used to compare each subject's placebo, PZG and PZA phase. Two-tailed Student t-tests were performed between groups. All results are reported as means ±SD. Statistical significance was considered when p<0.05. The results are illustrated in Tables 1-4.

[2] = Serum concentration of PZG or PZA after single oral dose in the crossover study; format: in vivo; details: human, 300 mg
Experimental: as §1, §2, §3, §4

[3] = system: cutaneous vasomotor reaction of blush area; assay: Cutaneous vasomotor response (and tolerability) after a single oral dose in 8 male volunteers; format: in vivo, human; design: key to Cutaneous vasomotor response, Score (0-6), Mean: graded 0 = not observed to 6 = most severe reaction
Experimental: as §1, §2
(§5) Comparisons of mean serum or plasma concentrations ±SD during placebo, PZG and PZA phases are presented in Table 1 for glucose, insulin, C-peptide, free fatty acids and norepinephrine. Comparisons of mean serum or plasma concentrations ±SD during these three phases are presented in Table 2 for triglycerides, VLDL, LDL, HDL, total cholesterol, fibrinogen and serum PZG and PZA concentrations. Note the close agreement of serum PZG and PZA concentrations at 2 h and also at 4 h after their administration. Table 3 compares mean serum or plasma concentrations ±SD of renin, angiotensin I, adlosterone, potassium, urea and uric acid during the three phases of the study. […] In an earlier pilot experiment to determine serum PZA concentrations following different PZA doses, a first subject ([…]) after a single oral dose of 300 mg PZA developed unexpectedly a typical cutaneous vasomotor reaction of their blush area which included flushed, warm skin of face, neck and shoulders with a mild rash for about 90 min. […] They described the reaction variously as warm redness or flushed head and neck, rash and itching (Table 4). These reactions, which were graded from 6 (most severe) to 0 (not observed), lasted from 30 min in 3 subjects to 4 h in 1 subject. […] No significant correlation occurred between score of reaction (effect+duration) and PZA peak blood concentration among the subjects (r=0.281) (Table 4).
(§6) ^1 Score = warm + redness (flush) + rash + itching + duration. Duration
(§7) as 0.5 h, 1, 2, 4 h (reaction and duration as noted).

[4] = Exploratory (pilot) study: serum concentrations and cutaneous vasomotor reaction after different oral PZA doses in two subjects; format: in vivo, human; details: human, serum, po, exploratory study; for concentration at 1 h: read-out: Serum PZG, 1 h; for concentration at 2 h: read-out: Serum PZG, 2 h
Experimental: as §5, §6, §7

[5] = system: cutaneous vasomotor reaction of blush area; assay: as above; format: in vivo, human
Experimental: as §5, §6, §7

[6] = in vivo; cited from earlier work
[7] = 2 h after single oral dose (PZG 900 mg, PZA 300 mg)
[8] = 4 h after single oral dose (PZG 900 mg, PZA 300 mg)

SMILES: O=C(O)c1cnccn1 [PZA, pyrazinoic acid]
- effect on mean values for serum glucose, insulin, C-peptide, triglycerides and free fatty acids ([1]; 0, 2 and 4 hours after administration): decreased
- Free fatty acids, mean [1, 7]: 0.10 meq/l
- Angiotensin I, mean [1, 7]: 0.75 ng/ml per h
- Renin, mean [1, 7]: 1.7 ng/ml per h
- C-peptide, mean [1, 7]: 1.0 ng/mL
- Potassium, mean [1, 7]: 4.6 meg/l
- Uric acid, mean [1, 7]: 6.3 mg/dL
- Aldosterone, mean [1, 7]: 12.3 ng/dL
- Insulin, mean [1, 7]: 3.7 μlU/ml
- Urea, mean [1, 7]: 17 mg/dL
- VLDL Cholesterol, mean [1, 7]: 15 mg/dL
- Norepinephrine, mean [1, 7]: 61 pg/mL
- HDL Cholesterol, mean [1, 7]: 41 mg/dL
- Glucose, mean [1, 7]: 85 mg/dL
- Triglycerides, mean [1, 7]: 77 mg/dL
- LDL Cholesterol, mean [1, 7]: 126 mg/dL
- Total cholesterol, mean [1, 7]: 179 mg/dL
- Fibrinogen, mean [1, 7]: 278 mg/dL
- Free fatty acids, mean [1, 8]: 0.09 meq/l
- Angiotensin I, mean [1, 8]: 0.73 ng/ml per h
- Renin, mean [1, 8]: 2.1 ng/ml per h
- C-peptide, mean [1, 8]: 0.7 ng/mL
- Potassium, mean [1, 8]: 4.3 meg/l
- Uric acid, mean [1, 8]: 6.2 mg/dL
- Aldosterone, mean [1, 8]: 12.5 ng/dL
- Insulin, mean [1, 8]: 3.7 μlU/ml
- Urea, mean [1, 8]: 16 mg/dL
- VLDL Cholesterol, mean [1, 8]: 14 mg/dL
- Norepinephrine, mean [1, 8]: 67 pg/mL
- HDL Cholesterol, mean [1, 8]: 45 mg/dL
- Glucose, mean [1, 8]: 80 mg/dL
- Triglycerides, mean [1, 8]: 69 mg/dL
- LDL Cholesterol, mean [1, 8]: 109 mg/dL
- Total cholesterol, mean [1, 8]: 168 mg/dL
- Fibrinogen, mean [1, 8]: 278 mg/dL
- effect on plasma concentrations of nonesterified fatty acids ([1]; PZA (Table 1)): reduce
- effect on insulin, C-peptide, free fatty acids and triglyceride serum concentrations ([1]; at equivalent plasma concentrations of PZG and PZA): reduced
- effect on LDL, HDL and total cholesterol ([1]; single oral dose, within 4 h): not altered systematically
- effect on potassium blood concentrations ([1]; single oral dose, within 4 h): not changed
- effect on uric acid plasma concentration ([1]; single oral dose, within 4 h): increased
- effect on very-low-density lipoprotein (VLDL) ([1]; single oral dose, within 4 h): decreased
- effect on plasma norepinephrine ([1]; single oral dose, not statistically significant): did not elevate
- concentration at 2 h ([2]; 2 h after single oral dose (PZG 900 mg, PZA 300 mg), 8 normal subjects, read-out: Serum concentration of PZG or PZA, mean): 5000 ng/mL
- concentration at 4 h ([2]; 4 h after single oral dose (PZG 900 mg, PZA 300 mg), 8 normal subjects): 3000 ng/mL
- concentration at 2 h ([2]; single 300-mg dose of PZA, individual subjects one, read-out: PZA 2-hour serum conc): 5600 ng/mL
- concentration at 2 h ([2]; single 300-mg dose of PZA, mean of 8 male volunteers, read-out: PZA 2-hour serum conc, Mean): 4960 ng/mL
- onset of cutaneous reaction relative to peak serum concentration ([3]; 300 mg PZA): the onset preceded peak serum PZA concentrations
- subjects that responded with a cutaneous vasomotor reaction ([3]; 300 mg PZA): 7 of 8
- seriousness of cutaneous vasomotor reactions ([3]; 300 mg PZA, 8 subjects): None of the cutaneous vasomotor reactions was serious enough to interfere with participation in the study
- subjects without cutaneous vasomotor reaction ([3]; 300 mg PZA, 8 subjects): One subject among the 8 had no reaction
- duration of cutaneous vasomotor reaction (longest) ([3]; 300 mg PZA, in 1 subject): 4 h
- duration of cutaneous vasomotor reaction (shortest) ([3]; 300 mg PZA, in 3 subjects): 30 min
- effect on blush area ([3]; PZA): transiently stimulate
- Cutaneous vasomotor response, Score (0-6), Mean ([3]; single 300-mg dose of PZA, mean of 8 male volunteers): 3.25
- half-life ([4]; subject two, 600 mg): 5 h
- concentration at 1 h ([4]; subject two, 600 mg): 10200 ng/mL
- concentration at 2 h ([4]; subject two, 600 mg): 12000 ng/mL
- half-life ([4]; subject, 300 mg): 3 h
- concentration at 1 h ([4]; subject, 300 mg): 6200 ng/mL
- concentration at 2 h ([4]; subject, 300 mg): 4800 ng/mL
- Cutaneous vasomotor response, Score (0-6), exploratory study ([5]; subject two, single oral dose 600 mg): 0
- cutaneous vasomotor reaction ([5]; subject two, single oral dose of 600 mg PZA): no cutaneous vasomotor reaction
- Cutaneous vasomotor response, Score (0-6), exploratory study ([5]; subject, single oral dose 300 mg): 6
- duration of cutaneous vasomotor reaction ([5]; subject, single oral dose of 300 mg PZA, face, neck and shoulders with mild rash): about 90 min
- effect on serum triglycerides [6]: lower serum triglycerides
- effect on uric acid blood concentrations [6]: increase uric acid blood concentrations
